Assay results published in patent publication US9820483B2, “Microbial composition” (Rohm and Haas Company, priority 2011, dated 2017).
Read-outs that look alike come from different tables or passages of the source.

Legend:
[1] = system: Staphylococcus aureus (10788 strain); assay: Antimicrobial efficacy of actives against S. aureus in water, 15 seconds contact, NMBS; assay type: cell-based; details: for NMBS: 15 s
Procedure: Selected materials were also tested against a representative Gram positive Staphylococcus aureus.
The following assay describes the testing of 8 materials using 6 dilutions across half of a 96-well micro titre plate (MTP). Using this approach it is possible to assay 16 actives (without replicates) with one full dilution plate, replicating this set up in two halves of the plate columns, 1-6 and 7-12.
Bacterial stock (30 μl) was then added to the prepared 270 μl of the solution of actives in the Screening Plate and mixed, using a multichannel pipette with 8 tips to aspirate and dispense the same volume of bacterial stock in parallel to 8 wells in rows A-H. After a contact time of 15 seconds, the mixtures were quenched by transferring 30 μl volumes of the mixtures into the 270 μl D/E neutralising solution in the prepared dilution plate, using aspiration to mix. After exactly 5 minutes in the D/E neutralising solution, […] were transferred from column 1 to column 2 of the Dilution MTP and mixed, before transferring further 30 μl volumes from column 2 into column 3. This process was repeated serially diluting the bacteria across the plate to column 6.
30 μl volumes from each well in the Dilution MTP were transferred onto pre-labelled segment of Tryptone Soya Agar (TSA) plates starting from the lowest bacterial concentration (highest dilution, column 6) to the highest bacterial concentration (column 1). The TSA plates were allowed to stand for ca. 2 hours so that the 30 μl inocula spots could dry and the plates were then inverted and incubated overnight at 37° C. before enumerating the bacterial colonies at the labelled dilutions to determine the effects of the actives on bacterial growth.
Mean bacterial survival numbers NMBS (expressed in Log CFU/ml) are obtained by first determining the segment of the TSA plate where the number of bacterial colonies is countable. From the colony number in this segment. NMBS is calculated by the formula: NMBS=log {Ncol·10^DF·100/3} Here, Ncol is the colony count, and DF is the dilution factor taken from the MTP-well corresponding to the TSA plate segment (i.e. DF may range from 1 for the quench, to 6 for the highest dilution). The factor 100/3 is a conversion factor from the volume of the inocula spot to one milliliter.
Every assay test was performed in triplicate.
Thus, a value of NMBS as of about 7 corresponds to a count of about […] from the fifth dilution well, i.e. with DF=5. Such a count of about 7 is generally observed when bacteria are exposed to non-biocidal materials. In case no surviving colonies are observed in any segment of the TSA plate, this is interpreted as complete kill and a value of NMBS=0 is reported.
S. aureus Bacterial stock was prepared as shown below and the antibacterial efficacy of the active was carried out as explained earlier for E. Coli.
An overnight culture of Staphylococcus aureus (10788 strain) was inoculated onto a Tripticase Soy Agar (TSA) plate and grown for ca. 18 hrs at 37° C. The culture of S. aureus was washed from the plate using sterile saline (0.85% NaCl) solution and a sterile spreader and suspended in 50 ml saline. This suspension was separated into equal volumes and centrifuged at 4000 rpm for 15 minutes. Following centrifugation the pellet was re-suspended in saline to give a final concentration of 0.35 OD620 equivalent to about 10^8 cells per milliliter for this particular organism. Here. OD620 indicates the absorbance of a sample in a cuvette of 1.0 cm path length at a wavelength of 620 nm. This bacterial stock was used for assaying against antimicrobial actives (in triplicate).

E. coli ATCC #10536 = assay: Synergy test: high resolution MBC microtiter plate assay in phosphate buffer containing 35% dipropylene glycol, 15 seconds contact; assay type: cell-based, Escherichia coli; details: E. coli 10536, complete kill in 15 seconds, phosphate buffer with 35% DPG
Text: One measure of synergy is the industrially accepted method described by Kull, F. C.; Eisman. P. C.; Sylwestrowicz, H. D. and Mayer, R. L., in Applied Microbiology 9:538-541 (1961), using the ratio determined by the formula: Qa/QA÷Qb/QB=Synergy Index (“SI”) wherein: QA=concentration of compound A (first component) in percent, acting alone, which produced an end point (MBC of Compound A). […]=concentration of compound A in percent, in the mixture, which produced an end point. QB=concentration of compound B (second component) in percent, acting alone, which produced an end point (MBC of Compound B). Qb=concentration of compound B in percent, in the mixture, which produced an end point.
When the sum of Qa/QA and Qb/QB is greater than one, antagonism is indicated. […] The lower the SI, the greater is the synergy shown by that particular mixture. The minimum biocidal concentration (MBC) of a microbicide is the lowest concentration tested under a specific set of conditions that provides complete kill of the tested microorganisms.
Synergy tests were conducted using standard microtiter plate assays with phosphate buffer containing 35% dipropylene glycol (DPG). In this method, a wide range of combinations of chemicals was tested by conducting high resolution MBC assays of Component (A) in the presence of various concentrations of Component (B). High resolution MBCs were determined by adding varying amounts of microbicide to one column of a microtiter plate and doing subsequent ten-fold dilutions using an automated liquid handling system to obtain a series of closely spaced endpoints. The MBC plate was inoculated one column at a time with the test microorganism. An aliquot of the inoculated well was transferred at 15 seconds to a plate containing a neutralizing agent (D/E Neutralizing Broth), mixed and held for 5 minutes before being transferred to a growth plate containing trypticase soy broth (TSB). The TSB plate was incubated at 37° C. and read for the presence/absence of growth at 24 hours. The lowest level tested that provided complete kill (as evidenced by no growth in the microtitre plate) of the test organisms in 15 seconds is the minimum biocidal concentration (MBC).
The synergy of the combinations of the present invention was determined against a bacterium, Esherichia coli (E. coli—ATCC #10536), at a concentration of approximately 1×10^8 bacteria per mL. This microorganism is representative of natural contaminants in many consumer and industrial applications.

[2] = system: Escherichia coli (E. coli—ATCC #10536); assay: Automated assessment of efficacy in model surfactant base (2.85% sodium cocoyl glycinate + 1.85% sodium lauroamphoacetate, pH 10), 15 seconds exposure, delta OD450/OD590 in D/E quench; assay type: cell-based; details: for MBC: in 2.85% sodium cocoyl glycinate + 1.85% sodium lauroamphoacetate solution at pH 10, E. coli
Procedure: Solutions were prepared such that the concentrations of the surfactant components and test actives were 1.1× the final desired concentration in order to allow for dilution with the bacterial inoculum in the test. The solutions were manually adjusted to pH 10.0 by dropwise addition of sodium hydroxide solution, as measured with a pH meter at ambient temperature.
Tests were conducted using standard microtiter plate assays using an automated liquid handling system. 270 μl of the surfactant test solution was pipetted into each well of the microtitre plate and 30 μl of the bacterial suspension was then added. After exactly 15 seconds of bacterial exposure, a 30 μl volume of bacterial cells was withdrawn and transferred to 270 μl of D/E quench solution. After 5 minutes in the D/E quench, the optical density (OD) was measured for each plate in turn at two specific wavelengths (450 nm and 590 nm). These provide a dual check of antimicrobial activity, as the OD450 reading is specific for the yellow colour of D/E quench when bacterial growth is observed, whereas OD590 is specific for the initial purple colour of the D/E quench which is retained if no bacterial growth is observed. After the time zero OD measurements, plates were then incubated at 37° C. overnight (16 hours) before repeating the OD measurements. Delta OD values were calculated by subtracting […]. Bacterial growth is observed as an increase in OD450 and a decrease in ΔOD590. To identify antibacterially efficacious systems (those preventing appreciable bacterial growth after incubation), the following threshold changes in OD readings have been adopted: if (1). OD450 increases by less than 0.2 absorbance unit on incubation and (2). OD590 decreases by less than 0.35 unit on incubation. Conversely, where OD450 increases by more than 0.2 AU and OD590 decreases by more than 0.35 unit after incubation, corresponding to a colour shift from purple to yellow, the test system allows bacterial growth and is not deemed efficacious. Four replicate measurements in the same plate have been made for each test system. The number of replicate wells showing either bacterial growth or no growth is also readily assessed by eye by following the colour change.
Dose responses for individual components and binary mixtures of actives at a fixed concentration ratio were generated by sequential dilution of liquors with further surfactant solution to obtain a series of endpoints.
In some selected cases, the combinations were also tested at the weight ratio 1:1.
The method used was the same as in the above Table.

[3] = system: Escherichia coli (10536 strain); assay: Antimicrobial efficacy in water, 15 seconds contact, mean bacterial survival NMBS on TSA plates; assay type: cell-based; details: E. coli, 15 s
Procedure: Antimicrobial efficacy is tested against a representative pathogenic bacterial organism, Gram negative Escherichia coli. Concentrations of actives are expressed in terms of the percentage weight/volume (% w/v) throughout the following Examples. […] Here, OD620 indicates the absorbance of a sample in a cuvette of 1.0 cm path length at a wavelength of 620 nm. This bacterial stock was used for assaying against antimicrobial actives (in triplicate). The following assay describes the testing of 8 materials using 6 dilutions across half of a 96-well micro titre plate (MTP). […] 1M solutions of the test actives were prepared in dimethylsulphoxide (DMSO). […] This MTP was labelled as the “Screening plate”. […] The composition of the neutralising solution was as follows: pancreatic digest of casein, 5.0 g/L; […] 270 μl of tryptone diluent solution was added to all the remaining wells of the Dilution MTP (columns 2-6). […] After a contact time of 15 seconds, the mixtures were quenched by transferring 30 μl volumes of the mixtures into the 270 μl D/E neutralising solution in the prepared dilution plate, using aspiration to mix. […] Mean bacterial survival numbers NMBS (expressed in Log CFU/ml) are obtained by first determining the segment of the TSA plate where the number of bacterial colonies is countable. From the colony number in this segment. NMBS is calculated by the formula: […] DF may range from 1 for the quench, to 6 for the highest dilution). The factor 100/3 is a conversion factor from the volume of the inocula spot to one milliliter. Every assay test was performed in triplicate. The reported mean bacterial survival results are the average of such a triplet, the error is the corresponding standard deviation. […] Such a count of about 7 is generally observed when bacteria are exposed to non-biocidal materials.

[4] = Escherichia coli, ATCC10536, 15 s, read-out: MBC

C=C(C)C1CC=C(C)C(O)C1 (centres unmarked) [2-methyl-5-(prop-1-en-2-yl)cyclohex-2-enol]
NMBS ([1]; 0.5% w/v alone, S. aureus): 7.27 log CFU/ml | MBC of the component acting alone (QA or QB; Qa or Qb with the other component at 0) (E. coli ATCC #10536): 0.7 weight % | MBC [2, 4]: 4000 µg/mL | No. of replicates showing growth (out of 4) ([2]; single active at 0.2% w/v): 4 | Δ OD 590 nm = OD590 (time = 16 hours) − OD590 (time zero), Mean ([2]; single active at 0.2% w/v): 0.61 | ΔOD 450 nm = OD450 (time = 16 hours) − OD450 (time zero), Mean ([2]; single active at 0.2% w/v): −0.51 | No. of replicates showing growth (out of 4) ([2]; single active at 0.3% w/v): 4 | Δ OD 590 nm = OD590 (time = 16 hours) − OD590 (time zero), Mean ([2]; single active at 0.3% w/v): 0.59 | ΔOD 450 nm = OD450 (time = 16 hours) − OD450 (time zero), Mean ([2]; single active at 0.3% w/v): −0.50 | No. of replicates showing growth (out of 4) ([2]; single active at 0.4% w/v): 4 | Δ OD 590 nm = OD590 (time = 16 hours) − OD590 (time zero), Mean ([2]; single active at 0.4% w/v): 0.47 | ΔOD 450 nm = OD450 (time = 16 hours) − OD450 (time zero), Mean ([2]; single active at 0.4% w/v): −0.35 | No. of replicates showing growth (out of 4) ([2]; single active at […] w/v): 4 | Δ OD 590 nm = OD590 (time = 16 hours) − OD590 (time zero), Mean ([2]; single active at […] w/v): 0.63 | ΔOD 450 nm = OD450 (time = 16 hours) − OD450 (time zero), Mean ([2]; single active at […] w/v): −0.50

CCCc1ccccc1O [2-n-propylphenol]
NMBS ([1]; 0.03% w/v alone, S. aureus): 7.12 log CFU/ml | bacterial kill (in words) ([1]; […] 2-propylphenol alone, S. aureus): Complete bacterial kill | MBC ([1]; component alone, against S. aureus, in water): 0.25 % w/v | NMBS ([3]; 0.06% w/v alone): 7.68 log CFU/ml | MBC [2]: 0.175 % w/v | No. of replicates showing growth (out of 4) ([2]; single active at 0.05% w/v): 4 | Δ OD 590 nm = OD590 (time = 16 hours) − OD590 (time zero), Mean ([2]; single active at 0.05% w/v): 0.46 | No. of replicates showing growth (out of 4) ([2]; single active at […] w/v): 4 | Δ OD 590 nm = OD590 (time = 16 hours) − OD590 (time zero), Mean ([2]; single active at […] w/v): 0.66

C=C(C)C1CCC(C)CC1O (centres unmarked) [isopulegol, 5-methyl-2-(prop-1-en-2-yl)cyclohexanol]
NMBS ([3]; 0.3% w/v alone): 0 log CFU/ml | NMBS ([3]; 0.4% w/v alone): 0 log CFU/ml | NMBS ([3]; […] w/v alone): 7.77 log CFU/ml | MBC ([3]; component alone, in water): 0.3 % (w/v) | MBC [2, 4]: > 5000 µg/mL | No. of replicates showing growth (out of 4) ([2]; single active at 0.3% w/v): 4 | Δ OD 590 nm = OD590 (time = 16 hours) − OD590 (time zero), Mean ([2]; single active at 0.3% w/v): 0.61 | ΔOD 450 nm = OD450 (time = 16 hours) − OD450 (time zero), Mean ([2]; single active at 0.3% w/v): −0.49 | No. of replicates showing growth (out of 4) ([2]; single active at 0.5% w/v): 2 | Δ OD 590 nm = OD590 (time = 16 hours) − OD590 (time zero), Mean ([2]; single active at 0.5% w/v): 0.42 | ΔOD 450 nm = OD450 (time = 16 hours) − OD450 (time zero), Mean ([2]; single active at 0.5% w/v): −0.09 | No. of replicates showing growth (out of 4) ([2]; single active at […] w/v): 4 | Δ OD 590 nm = OD590 (time = 16 hours) − OD590 (time zero), Mean ([2]; single active at […] w/v): 0.59 | ΔOD 450 nm = OD450 (time = 16 hours) − OD450 (time zero), Mean ([2]; single active at […] w/v): −0.54
